Experimental data from the NIST ThermoML archive (doi:10.1021/je049808f).

Key:
[1] = cn = amount concentration of the nth substance listed, in mol/dm3; conditions: 100 kPa, Liquid
[2] = 298.15 K, Liquid; for viscosity: 100 kPa; for mass density: 101.33 kPa

[I-].[K+] [potassium iodide] + CO
[1]
Conditions	mass density [kg/m3]	viscosity [mPa·s]
298.15 K, c1 = 0.0906	800.8	0.578
298.15 K, c1 = 0.1458	809	0.598
298.15 K, c1 = 0.1806	814.3	0.609
298.15 K, c1 = 0.2451	824.3	0.628
298.15 K, c1 = 0.3767	845.3	0.665
298.15 K, c1 = 0.4151	851.6	0.677
298.15 K, c1 = 0.4787	862.2	0.695
298.15 K, c1 = 0.5381	872.4	0.724
298.15 K, c1 = 0.614	885.4	0.737
298.15 K, c1 = 0.6541	892.7	0.75
303.15 K, c1 = 0.0901	796.1	0.539
303.15 K, c1 = 0.1449	804.3	0.558
303.15 K, c1 = 0.1795	809.6	0.568
303.15 K, c1 = 0.2437	819.5	0.587
303.15 K, c1 = 0.3745	840.6	0.62
303.15 K, c1 = 0.4127	846.8	0.631
303.15 K, c1 = 0.476	857.5	0.653
303.15 K, c1 = 0.535	867.6	0.664
303.15 K, c1 = 0.6106	880.5	0.685
303.15 K, c1 = 0.6505	887.8	0.697
308.15 K, c1 = 0.0895	791.3	0.504
308.15 K, c1 = 0.1441	799.6	0.522
308.15 K, c1 = 0.1785	804.9	0.532
308.15 K, c1 = 0.2423	814.8	0.548
308.15 K, c1 = 0.3724	835.8	0.58
308.15 K, c1 = 0.4104	842	0.59
308.15 K, c1 = 0.4733	852.7	0.615
308.15 K, c1 = 0.5321	862.8	0.623
308.15 K, c1 = 0.6073	875.7	0.639
308.15 K, c1 = 0.647	883	0.651
313.15 K, c1 = 0.1432	794.8	0.489
313.15 K, c1 = 0.1774	800.1	0.498
313.15 K, c1 = 0.2409	810	0.513
313.15 K, c1 = 0.3704	831.1	0.543
313.15 K, c1 = 0.4081	837.2	0.552
313.15 K, c1 = 0.4707	847.8	0.572
313.15 K, c1 = 0.5291	858	0.58
313.15 K, c1 = 0.604	870.8	0.598
313.15 K, c1 = 0.6435	878.1	0.608

[I-].[NH4+] [ammonium iodide] + CO
[1]
Conditions	mass density [kg/m3]	viscosity [mPa·s]
298.15 K, c1 = 0.1696	807.2	0.597
298.15 K, c1 = 0.3281	826.3	0.628
298.15 K, c1 = 0.4765	845.4	0.674
298.15 K, c1 = 0.5841	859.1	0.692
298.15 K, c1 = 0.5862	859.4	0.688
298.15 K, c1 = 0.7482	881.8	0.737
298.15 K, c1 = 0.8737	899.4	0.771
298.15 K, c1 = 0.9947	916.9	0.802
298.15 K, c1 = 1.105	933.34	0.836
298.15 K, c1 = 1.209	949.2	0.865
298.15 K, c1 = 1.334	968.4	0.903
298.15 K, c1 = 1.417	981.5	0.93
298.15 K, c1 = 1.507	996.2	0.96
303.15 K, c1 = 0.1686	802.6	0.557
303.15 K, c1 = 0.3262	821.6	0.586
303.15 K, c1 = 0.4739	840.8	0.628
303.15 K, c1 = 0.581	854.5	0.648
303.15 K, c1 = 0.7443	877.2	0.688
303.15 K, c1 = 0.8692	894.8	0.719
303.15 K, c1 = 0.9897	912.3	0.749
303.15 K, c1 = 1.099	928.8	0.781
303.15 K, c1 = 1.203	944.6	0.809
303.15 K, c1 = 1.327	963.8	0.847
303.15 K, c1 = 1.41	976.9	0.868
303.15 K, c1 = 1.5	991.6	0.898
308.15 K, c1 = 0.1676	797.9	0.522
308.15 K, c1 = 0.3018	813.9	0.54
308.15 K, c1 = 0.4712	836.1	0.587
308.15 K, c1 = 0.5799	850.1	0.6
308.15 K, c1 = 0.7404	872.6	0.644
308.15 K, c1 = 0.8647	890.2	0.682
308.15 K, c1 = 0.9847	907.6	0.701
308.15 K, c1 = 1.094	924.3	0.729
308.15 K, c1 = 1.197	940	0.756
308.15 K, c1 = 1.321	959.2	0.789
308.15 K, c1 = 1.403	972.3	0.813
308.15 K, c1 = 1.493	987	0.84
313.15 K, c1 = 0.1667	793.1	0.49
313.15 K, c1 = 0.3001	809.2	0.506
313.15 K, c1 = 0.4686	831.4	0.551
313.15 K, c1 = 0.5767	845.4	0.563
313.15 K, c1 = 0.7364	867.9	0.604
313.15 K, c1 = 0.8602	885.5	0.631
313.15 K, c1 = 0.9797	903	0.658
313.15 K, c1 = 1.089	920	0.685
313.15 K, c1 = 1.191	935.4	0.71
313.15 K, c1 = 1.315	954.6	0.741
313.15 K, c1 = 1.397	967.7	0.763
313.15 K, c1 = 1.486	982.4	0.788

CCO [ethanol]
[2]
Conditions	mass density [kg/m3]	viscosity [mPa·s]
–	785.2	1.082

CO [methanol]
[2]
Conditions	mass density [kg/m3]	viscosity [mPa·s]
–	786.2	0.545

[I-].[NH4+] [ammonium iodide] + CCO
[1]
Conditions	mass density [kg/m3]	viscosity [mPa·s]
298.15 K, c1 = 0.1638	804.1	1.229
298.15 K, c1 = 0.2289	811.7	1.275
298.15 K, c1 = 0.3302	823.9	1.35
298.15 K, c1 = 0.4015	832.7	1.414
298.15 K, c1 = 0.4696	841.1	1.495
298.15 K, c1 = 0.6094	859.4	1.557
298.15 K, c1 = 0.6694	867	1.598
298.15 K, c1 = 0.7343	875.8	1.663
298.15 K, c1 = 0.8676	894.5	1.77
298.15 K, c1 = 0.972	908.9	1.839
303.15 K, c1 = 0.1629	799.8	1.12
303.15 K, c1 = 0.2276	807.4	1.161
303.15 K, c1 = 0.3285	819.6	1.225
303.15 K, c1 = 0.3994	828.4	1.284
303.15 K, c1 = 0.4673	836.9	1.359
303.15 K, c1 = 0.6064	855.1	1.413
303.15 K, c1 = 0.6661	862.7	1.454
303.15 K, c1 = 0.7307	871.6	1.499
303.15 K, c1 = 0.8635	890.2	1.599
303.15 K, c1 = 0.9674	904.7	1.674
308.15 K, c1 = 0.162	795.5	1.048
308.15 K, c1 = 0.2264	803.1	1.059
308.15 K, c1 = 0.3268	815.3	1.117
308.15 K, c1 = 0.3974	824.1	1.165
308.15 K, c1 = 0.4658	834.2	1.241
308.15 K, c1 = 0.6033	850.8	1.287
308.15 K, c1 = 0.6628	858.4	1.327
308.15 K, c1 = 0.7271	867.3	1.365
308.15 K, c1 = 0.8593	885.9	1.459
308.15 K, c1 = 0.9628	900.4	1.544
313.15 K, c1 = 0.1611	791.1	0.935
313.15 K, c1 = 0.2252	798.8	0.968
313.15 K, c1 = 0.3251	811	1.02
313.15 K, c1 = 0.3952	819.7	1.062
313.15 K, c1 = 0.4634	829.3	1.1
313.15 K, c1 = 0.6003	846.5	1.175
313.15 K, c1 = 0.6595	854.1	1.226
313.15 K, c1 = 0.7235	863	1.246
313.15 K, c1 = 0.8551	881.6	1.324
313.15 K, c1 = 0.9582	896.1	1.388
